Experimental data published in the supplement of paper PMC6045584.
± gives the standard deviation of the averaged measurements.

How the values were obtained:
ERLOTINIB = compound: C#Cc1cccc(Nc2ncnc3cc(OCCOC)c(OCCOC)cc23)c1 [ERLOTINIB]; test: surviving fraction relative to DMSO-only wells; higher = less growth inhibition; conditions: exposure time: 5 days
Procedure, shortened: (§1)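 For each tumour cell line, log-phase cells were put into 384-well plates at 250–500 cells per well, then after 24 hours exposed continuously for five days to inhibitors at 0.5, 1, 5, 10, 50, 100, 500 and 1000 nM. Viability was assessed by CellTiter-Glo luminescence, with surviving fraction expressed relative to the median of DMSO-only wells. Lines were screened three times and retained only if replicate Pearson r exceeded 0.7 and median Z' exceeded 0.3.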

METHOTREXATE = compound: CN(Cc1cnc2nc(N)nc(N)c2n1)c1ccc(C(=O)N[C@@H](CCC(=O)O)C(=O)O)cc1 [METHOTREXATE]; test: as above; conditions: exposure time: 5 days
Procedure, shortened: as §1

Row | Test System | surviving fraction (ERLOTINIB; 0.5 nM) | surviving fraction (ERLOTINIB; 1 nM) | surviving fraction (ERLOTINIB; 5 nM) | surviving fraction (ERLOTINIB; 10 nM) | surviving fraction (ERLOTINIB; 50 nM) | surviving fraction (ERLOTINIB; 100 nM) | surviving fraction (ERLOTINIB; 500 nM) | surviving fraction (ERLOTINIB; 1000 nM) | surviving fraction (METHOTREXATE; 0.5 nM) | surviving fraction (METHOTREXATE; 1 nM) | surviving fraction (METHOTREXATE; 5 nM) | surviving fraction (METHOTREXATE; 10 nM) | surviving fraction (METHOTREXATE; 50 nM) | surviving fraction (METHOTREXATE; 100 nM) | surviving fraction (METHOTREXATE; 500 nM) | surviving fraction (METHOTREXATE; 1000 nM)
1 | 22RV1 PROSTATE | 1.1 ± 0.11 | 1.01 ± 0.12 | 1.03 ± 0.048 | 1 ± 0.028 | 1.04 ± 0.072 | 0.956 ± 0.17 | 0.991 ± 0.18 | 1.08 ± 0.021 | 1.06 ± 0.075 | 0.984 ± 0.11 | 0.946 ± 0.15 | 0.964 ± 0.12 | 0.452 ± 0.016 | 0.325 ± 0.013 | 0.285 ± 0.097 | 0.279 ± 0.099
2 | 93VU HEADNECK | 1.1 ± 0.058 | 1.04 ± 0.095 | 1.1 ± 0.067 | 1.04 ± 0.12 | 1.06 ± 0.051 | 0.97 ± 0.15 | 0.514 ± 0.066 | 0.416 ± 0.034 | 1.03 ± 0.099 | 1.08 ± 0.091 | 1.16 ± 0.11 | 1.18 ± 0.063 | 0.854 ± 0.081 | 1.02 ± 0.051 | 0.702 ± 0.049 | 0.671 ± 0.018
3 | 143B BONE | – | 1.11 ± 0.067 | 1.13 ± 0.067 | – | 1.15 ± 0.053 | 1.17 ± 0.067 | 1.19 ± 0.14 | 1.15 ± 0.16 | 1.06 ± 0.018 | 1.04 ± 0.016 | 1.03 ± 0.041 | 0.471 ± 0.022 | 0.379 ± 0.033 | 0.174 ± 0.014 | 0.085 ± 0.0071 | 0.0875 ± 0.016
4 | A549 LUNG | – | 1.06 ± 0.026 | 1.06 ± 0.027 | 1.056 ± 0.0021 | 1.05 ± 0.022 | – | – | 1.03 ± 0.029 | 1.06 ± 0.07 | 1.06 ± 0.043 | 1.04 ± 0.023 | 1.06 ± 0.036 | 0.237 ± 0.0061 | 0.219 ± 0.0071 | 0.213 ± 0.0055 | 0.218 ± 0.0055
5 | ASKA SYNOVIAL | 1.12 ± 0.047 | 1.15 ± 0.07 | 1.18 ± 0.06 | 1.19 ± 0.036 | – | 1.15 ± 0.067 | 1.09 ± 0.033 | 0.987 ± 0.099 | 1.13 ± 0.14 | 1.07 ± 0.067 | 1.13 ± 0.048 | 1.08 ± 0.083 | 1.23 ± 0.094 | 1.18 ± 0.087 | 1.19 ± 0.086 | 1.12 ± 0.09
6 | BT20 BREAST | 1.22 ± 0.026 | 1.19 ± 0.11 | 1.19 ± 0.11 | 1.13 ± 0.069 | 1.08 ± 0.069 | 1.12 ± 0.034 | 1.03 ± 0.034 | 0.947 ± 0.081 | 1.16 ± 0.083 | 1.15 ± 0.095 | 1.12 ± 0.075 | 1.1 ± 0.087 | 0.992 ± 0.1 | 0.995 ± 0.089 | 0.998 ± 0.021 | 0.989 ± 0.1
7 | BT549 BREAST | 0.973 ± 0.036 | 1.01 ± 0.15 | 1.06 ± 0.11 | 1.1 ± 0.12 | 1.19 ± 0.071 | 1.22 ± 0.047 | 1.13 ± 0.03 | 1.03 ± 0.069 | 1.11 ± 0.16 | 1.04 ± 0.034 | 1 ± 0.063 | 1.03 ± 0.11 | 0.107 ± 0.012 | 0.044 ± 0.0053 | 0.0323 ± 0.0055 | 0.039 ± 0.011
8 | CADOES1 SOFT TISSUE | 0.854 ± 0.09 | 0.853 ± 0.033 | 0.882 ± 0.11 | 0.839 ± 0.11 | 0.783 ± 0.073 | 0.829 ± 0.057 | – | 0.842 ± 0.077 | 0.973 ± 0.11 | 1.02 ± 0.14 | 0.869 ± 0.052 | 0.672 ± 0.12 | 0.288 ± 0.013 | 0.229 ± 0.0093 | 0.226 ± 0.021 | 0.242 ± 0.011
9 | CAL51 BREAST | 0.969 ± 0.04 | 0.993 ± 0.069 | 1.05 ± 0.067 | 1.02 ± 0.062 | 1.07 ± 0.045 | 1.07 ± 0.036 | 1.09 ± 0.059 | 1.061 ± 0.0043 | 1.06 ± 0.039 | 1.02 ± 0.021 | 1.02 ± 0.035 | 0.962 ± 0.052 | 0.243 ± 0.0049 | 0.142 ± 0.015 | 0.0995 ± 0.0051 | 0.09133 ± 0.00076
10 | CAL120 BREAST | 0.971 ± 0.033 | 0.964 ± 0.036 | 0.965 ± 0.041 | 0.963 ± 0.017 | 0.988 ± 0.012 | 0.976 ± 0.052 | 0.967 ± 0.035 | 0.958 ± 0.038 | 0.961 ± 0.032 | 0.96 ± 0.086 | 0.721 ± 0.027 | 0.31 ± 0.026 | 0.328 ± 0.0043 | 0.336 ± 0.0094 | 0.333 ± 0.0045 | 0.335 ± 0.012
11 | CASKI CERVIX | 0.908 ± 0.099 | 0.856 ± 0.053 | – | 0.8153 ± 0.0021 | 0.717 ± 0.049 | 0.547 ± 0.031 | 0.336 ± 0.013 | 0.239 ± 0.018 | 0.941 ± 0.045 | 0.892 ± 0.058 | 0.946 ± 0.073 | 0.967 ± 0.031 | 0.533 ± 0.019 | 0.2303 ± 0.0015 | 0.192 ± 0.018 | 0.208 ± 0.027
12 | CHLA90 AUTONOMIC GANGLIA | 1.01 ± 0.059 | 0.963 ± 0.12 | – | 0.94 ± 0.041 | 0.984 ± 0.09 | 0.948 ± 0.079 | 0.856 ± 0.057 | 0.88 ± 0.036 | 1.037 ± 0.006 | 1.01 ± 0.084 | 1 ± 0.035 | 0.995 ± 0.037 | 1.08 ± 0.11 | 1.13 ± 0.12 | 1.16 ± 0.11 | 1.19 ± 0.033
13 | CME SYNOVIAL | 1.29 ± 0.069 | 1.29 ± 0.052 | 1.32 ± 0.091 | 1.33 ± 0.17 | 1.44 ± 0.17 | 1.36 ± 0.12 | 1.29 ± 0.17 | 1.16 ± 0.17 | 1.2 ± 0.098 | 1.12 ± 0.069 | 0.755 ± 0.15 | 0.558 ± 0.062 | 0.612 ± 0.019 | 0.612 ± 0.034 | 0.561 ± 0.048 | 0.648 ± 0.046
14 | COLO320DM LARGE INTESTINE | 1.17 ± 0.18 | 0.993 ± 0.074 | 1.06 ± 0.094 | 1.09 ± 0.12 | 1.155 ± 0.011 | 1.02 ± 0.078 | 1.04 ± 0.039 | 0.99 ± 0.032 | 1.05 ± 0.045 | 1.04 ± 0.02 | 1.09 ± 0.056 | 0.648 ± 0.066 | 0.315 ± 0.011 | 0.315 ± 0.0081 | 0.307 ± 0.0097 | 0.295 ± 0.027
15 | DU4475 BREAST | 0.965 ± 0.051 | 0.972 ± 0.086 | – | – | – | 1.17 ± 0.027 | 1.15 ± 0.14 | 1.02 ± 0.033 | 0.815 ± 0.2 | 0.988 ± 0.11 | 0.943 ± 0.16 | 0.933 ± 0.11 | 1.02 ± 0.049 | 1.09 ± 0.092 | 1.03 ± 0.13 | 1.01 ± 0.032
16 | H23 LUNG | – | 1.04 ± 0.038 | 0.998 ± 0.065 | 0.992 ± 0.055 | 0.774 ± 0.051 | 0.488 ± 0.016 | 0.349 ± 0.015 | 0.336 ± 0.015 | 1.06 ± 0.054 | 0.996 ± 0.068 | 1.01 ± 0.062 | 0.461 ± 0.084 | 0.254 ± 0.015 | 0.236 ± 0.022 | 0.236 ± 0.016 | 0.222 ± 0.014
17 | HCC38 BREAST | 1.16 ± 0.22 | 1.22 ± 0.14 | 1.48 ± 0.025 | 1.29 ± 0.15 | 1.54 ± 0.15 | 1.17 ± 0.13 | 1.19 ± 0.2 | 1.1 ± 0.16 | 1.39 ± 0.32 | 1.22 ± 0.13 | 1.37 ± 0.2 | 1.43 ± 0.15 | 1.05 ± 0.28 | 0.803 ± 0.038 | 0.385 ± 0.086 | 0.359 ± 0.032
18 | HCC70 BREAST | 1.1 ± 0.094 | – | 1.15 ± 0.071 | 1.06 ± 0.097 | 1.03 ± 0.066 | 0.992 ± 0.022 | 1.03 ± 0.044 | 0.952 ± 0.096 | 1.04 ± 0.079 | 1.14 ± 0.092 | 1.01 ± 0.09 | 1.12 ± 0.046 | 0.842 ± 0.043 | 0.789 ± 0.023 | 0.763 ± 0.025 | 0.787 ± 0.041
19 | HCC78 LUNG | 0.768 ± 0.087 | – | 0.918 ± 0.11 | 1.02 ± 0.033 | 0.962 ± 0.18 | – | 0.767 ± 0.15 | 0.847 ± 0.1 | 1 ± 0.064 | 0.847 ± 0.19 | 0.914 ± 0.12 | 0.831 ± 0.13 | 0.503 ± 0.056 | 0.448 ± 0.058 | 0.421 ± 0.032 | 0.41 ± 0.039
20 | HCC202 BREAST | 1.37 ± 0.29 | – | 1.2 ± 0.2 | 1.2 ± 0.12 | 1.64 ± 0.29 | 1.32 ± 0.28 | – | 0.762 ± 0.15 | 1.3 ± 0.45 | 1.26 ± 0.38 | 1.21 ± 0.097 | 1 ± 0.25 | 1.14 ± 0.16 | 1.16 ± 0.37 | 0.945 ± 0.21 | 1.15 ± 0.13
21 | HCC1806 BREAST | 1.04 ± 0.062 | 1.1 ± 0.067 | 1.13 ± 0.056 | 1.15 ± 0.061 | 1.2 ± 0.042 | 1.12 ± 0.037 | 0.656 ± 0.069 | 0.623 ± 0.025 | 1.13 ± 0.11 | 1.11 ± 0.098 | 0.503 ± 0.063 | 0.445 ± 0.03 | 0.263 ± 0.01 | 0.227 ± 0.017 | 0.244 ± 0.0074 | 0.254 ± 0.016
